Tested on: scalp hair
Assay: scalp hair conditioner / scalp serum applied to dry scalp, monthly follow up with photographs
Assay type: in vivo
Conditions: applied to dry scalp after cleansing
From the text: The subjects were asked to apply the scalp serum with various concentrations of prostaglandin (dechloroethylcloprostenolamide from 0 wt % to 0.03 wt %), and a placebo is applied on the separate portion of the scalp. […] All the agents are applied directly to dry scalp after cleansing. Follow up are done monthly and photographs are taken.

In the case of “dechloroethylcloprostenolamide [prostaglandin]”, the “time to response on scalp” value is reported as 3 month.
